Experimental data reported in patent US20250388571A1, “AMP-ACTIVATED PROTEIN KINASE MODULATOR COMPOUNDS AND USES THEREOF” (Biolexis Therapeutics, Inc., priority 2024, published 2025).
Like-named read-outs stand apart in the source and are kept apart here.

Legend:
HepG2 cells = assay: CyQUANT Cytotoxicity Assay (G6PD assay), HepG2; conditions: treated 2 hours
HCM cells = assay: CyQUANT Cytotoxicity Assay (G6PD assay), HCM; conditions: treated 2 hours
db/db mice = conditions: for Plasma Cholesterol / Plasma HDL / Plasma LDL / Plasma Triglyceride: end of the study; for Absolute Liver Weight / Absolute Liver Weight (g) [table follows b2014 on epididymal adipose tissue weight] / Relative Epididymal Tissue Weight / Relative Liver Weight: necropsy; for Fasting Plasma Glucose (mg/dL), OGTT: OGTT day 21, before glucose load 1 gram/kg
Description: The doses of the test item to be administered were calculated daily in mg/kg based on the latest bodyweight of the animal. The dose volume was calculated based on mg/kg of body weight and adjusted with each bodyweight collection. Dose and route of the test compounds administration are selected as per the supporting literature.
Male db/db mice were procured from The Jackson Laboratory. All the animals were allowed to quarantine for 7 days and acclimatize for one day prior to experiment initiation. During this period, mice were observed daily once for clinical signs. On Day 1, Animals were randomized based on body weight and blood glucose levels (Accu-Chek) into three groups. […] During the study period the body weight of mice was recorded weekly thrice, and clinical scoring was done on daily basis. The OGTT was performed on day 21. On day 36 blood was collected and centrifuged at 4° C., 10,000 RPM for 10 minutes for plasma collection. The plasma stored at −80° C. for estimation of plasma HDL and LDL. All the animals were humanely sacrificed by CO2. At the time of necropsy liver, adipose tissue and pancreas weight were taken. The liver and pancreas were stored at −80° C.
A mixture of DMSO (2%), Cremophor EL (2%), Tween 80 (1%), 0.5% methyl cellulose (35%), and water (60%) was used for the formulation. Doses were prepared at concentrations of 30 and 50 mg/kg. Administration was oral, daily for 36 days. Male mice (Mus musculus; db/db C57BL/6) aged 8-9 weeks and weighing less than or equal to 40 grams were used for the study. Groups were assigned 10 mice per group.
During the study period body weight of mice were recorded weekly thrice and clinical scoring were done on daily basis. The OGTT was performed on day 21. On day 36 blood was collected and centrifuged at 4° C., 10000 RPM for 10 minutes for plasma collection. The plasma stored at −80° C. for estimation of plasma HDL and LDL. All the animals were humanely sacrificed by CO2. At the time of necropsy liver, adipose tissue and pancreas weight were taken. Liver and pancreas were stored at −80° C.
Cage-side observations were made to detect any changes and general activity of the animals.
Body weight of each mouse was recorded at the time of randomization and thrice a week during study period. OGTT were done at day 21. On day 20 mice were fasted over night and on day 21 mice were treated with respective treatment-60 minute prior to glucose load 1 gram/kg. Plasma glucose was measured at 0 min (before glucose load), 15 min, 30 min, 60 min, 90 min and 120 min.
Glucose estimation in urine was done at terminal point on day 32. The urine of individual mice was collected by placing the mice in metabolic cages. Urine glucose levels were measured by calorimetric method in collected urine.
Plasma lipid profile: Triglyceride, HDL and LDL were performed at the end of the study by appropriate kit or using Fully Auto Biochemistry Analyzer Selectra PRO M Lite. Fat pad weight was recorded at terminal point. Fructosamine were measured by ELISA kit (Biomol, G-MOEB2562.96).
All data is expressed as mean±SEM unless otherwise noted. Statistical analysis was done with GraphPad Prism-5 using one-way ANOVA followed by Dunnett's test/Tukey's post hoc test. Data were considered statistically significant if P value is less than 0.05.

**Q.** Which “toxicity compared to reference compounds MK-8722 and PF-06409577 (G6PD release)” value (HepG2 cells) does the source give for `O=c1[nH]c(-c2c[nH]c3cc(F)c(-c4ccc(C5(O)CCC5)cc4)c(F)c23)no1` [Compound I-11, 3-(4,6-difluoro-5-(4-(1-hydroxycyclobutyl)phenyl)-1H-indol-3-yl)-1,2,4-oxadiazol-5(4H)-one] here?
**A.** less toxicity

**Q.** What about the “toxicity compared to reference compounds MK-8722 and PF-06409577 (G6PD release)” value (HCM cells) of the same molecule?
**A.** less toxicity

**Q.** What about the “Fasting Fructosamine” value (db/db mice; 30 mg/kg p.o. QD) of the same molecule?
**A.** 1164.8 ± 105.5 ng/mL

**Q.** What about the “Fasting Plasma HbA1c” value (db/db mice; 30 mg/kg p.o. QD) of the same molecule?
**A.** 60.13 ± 7.73 ng/mL

**Q.** What about the “Fasting Plasma Insulin” value (db/db mice; 30 mg/kg p.o. QD) of the same molecule?
**A.** 4.6 ± 0.5 ng/mL

**Q.** And the “Fasting Blood Glucose (~12 hrs)” value (db/db mice; 30 mg/kg p.o. QD, Day 36)?
**A.** 335.70 ± 16.88 mg/dL

**Q.** And the “Urine Glucose” value (db/db mice; 30 mg/kg p.o. QD, day 32)?
**A.** 1694.43 ± 10.56 mg/dL

**Q.** And the “Plasma Cholesterol” value (db/db mice; 30 mg/kg p.o. QD)?
**A.** 118.13 ± 8.39 mg/dL

**Q.** And the “Plasma HDL” value (db/db mice; 30 mg/kg p.o. QD)?
**A.** 145.41 ± 11.48 mg/dL

**Q.** And the “Plasma LDL” value (db/db mice; 30 mg/kg p.o. QD)?
**A.** 23.58 ± 2.93 mg/dL

**Q.** What about the “Plasma Triglyceride” value (db/db mice; 30 mg/kg p.o. QD) of the same molecule?
**A.** 156.87 ± 17.41 mg/dL

**Q.** What about the “Absolute Liver Weight” value (db/db mice; 30 mg/kg p.o. QD) of the same molecule?
**A.** 2.34 ± 0.07 g

**Q.** What about the “Absolute Liver Weight (g) [table follows b2014 on epididymal adipose tissue weight]” value (db/db mice; 30 mg/kg p.o. QD) of the same molecule?
**A.** 2.42 ± 0.10 g

**Q.** And the “Relative Epididymal Tissue Weight” value (db/db mice; 30 mg/kg p.o. QD)?
**A.** 0.057 ± 0.002 g

**Q.** What about the “Relative Liver Weight” value (db/db mice; 30 mg/kg p.o. QD) of the same molecule?
**A.** 0.055 ± 0.001 g

**Q.** What about the “15 min Plasma Glucose (mg/dL), OGTT” value (db/db mice; 30 mg/kg, OGTT day 21) of the same molecule?
**A.** 676.20 ± 19.94 mg/dL

**Q.** And the “30 min Plasma Glucose (mg/dL), OGTT” value (db/db mice; 30 mg/kg, OGTT day 21)?
**A.** 619.54 ± 26.68 mg/dL

**Q.** What about the “60 min Plasma Glucose (mg/dL), OGTT” value (db/db mice; 30 mg/kg, OGTT day 21) of the same molecule?
**A.** 520.87 ± 46.63 mg/dL

**Q.** And the “120 min Plasma Glucose (mg/dL), OGTT” value (db/db mice; 30 mg/kg, OGTT day 21)?
**A.** 397.78 ± 9.65 mg/dL

**Q.** What about the “glucose area under the curve (AUC), OGTT” value (db/db mice; 30 mg/kg, OGTT day 21) of the same molecule?
**A.** 61613.10 ± 2572.98 mg·min/dL

**Q.** What about the “Fasting Plasma Glucose (mg/dL), OGTT” value (db/db mice; 30 mg/kg) of the same molecule?
**A.** 287.70 ± 34.54 mg/dL

**Q.** And the “decrease in the plasma glucose compared to vehicle control (OGTT)” value (db/db mice; 30 mg/kg, statistically not significant)?
**A.** 7.5%

**Q.** What about the “Fasting Fructosamine” value (db/db mice; 50 mg/kg p.o. QD) of the same molecule?
**A.** 954.2 ± 45.6 ng/mL

**Q.** And the “Fasting Plasma HbA1c” value (db/db mice; 50 mg/kg p.o. QD)?
**A.** 39.82 ± 4.31 ng/mL

**Q.** What about the “Fasting Plasma Insulin” value (db/db mice; 50 mg/kg p.o. QD) of the same molecule?
**A.** 5.2 ± 0.8 ng/mL

**Q.** And the “Plasma Cholesterol” value (db/db mice; 50 mg/kg p.o. QD)?
**A.** 97.30 ± 8.76 mg/dL

**Q.** And the “Plasma HDL” value (db/db mice; 50 mg/kg p.o. QD)?
**A.** 110.76 ± 9.17 mg/dL

**Q.** And the “Plasma LDL” value (db/db mice; 50 mg/kg p.o. QD)?
**A.** 14.78 ± 1.62 mg/dL

**Q.** What about the “Plasma Triglyceride” value (db/db mice; 50 mg/kg p.o. QD) of the same molecule?
**A.** 97.55 ± 11.60 mg/dL

**Q.** And the “Absolute Liver Weight” value (db/db mice; 50 mg/kg p.o. QD)?
**A.** 2.34 ± 0.06 g

**Q.** What about the “Absolute Liver Weight (g) [table follows b2014 on epididymal adipose tissue weight]” value (db/db mice; 50 mg/kg p.o. QD) of the same molecule?
**A.** 2.58 ± 0.07 g

**Q.** What about the “Relative Epididymal Tissue Weight” value (db/db mice; 50 mg/kg p.o. QD) of the same molecule?
**A.** 0.061 ± 0.001 g

**Q.** And the “Relative Liver Weight” value (db/db mice; 50 mg/kg p.o. QD)?
**A.** 0.056 ± 0.001 g

**Q.** And the “15 min Plasma Glucose (mg/dL), OGTT” value (db/db mice; 50 mg/kg, OGTT day 21)?
**A.** 670.72 ± 23.88 mg/dL

**Q.** What about the “30 min Plasma Glucose (mg/dL), OGTT” value (db/db mice; 50 mg/kg, OGTT day 21) of the same molecule?
**A.** 560.85 ± 37.42 mg/dL

**Q.** And the “60 min Plasma Glucose (mg/dL), OGTT” value (db/db mice; 50 mg/kg, OGTT day 21)?
**A.** 485.98 ± 32.31 mg/dL

**Q.** And the “120 min Plasma Glucose (mg/dL), OGTT” value (db/db mice; 50 mg/kg, OGTT day 21)?
**A.** 378.40 ± 18.24 mg/dL

**Q.** What about the “glucose area under the curve (AUC), OGTT” value (db/db mice; 50 mg/kg, OGTT day 21) of the same molecule?
**A.** 57436.00 ± 2283.79 mg·min/dL

**Q.** What about the “Fasting Plasma Glucose (mg/dL), OGTT” value (db/db mice; 50 mg/kg) of the same molecule?
**A.** 204.64 ± 29.60 mg/dL

**Q.** What about the “decrease in the plasma glucose compared to vehicle control (OGTT)” value (db/db mice; 50 mg/kg, significant) of the same molecule?
**A.** 14%

**Q.** And the “fasting blood glucose levels compared with vehicle control, dose dependence” value (db/db mice; 30 & 50 mg/kg p.o. QD, day 21, 28, and 36)?
**A.** dose-dependent decrease

**Q.** And the “clinical signs, morbidity, mortality” value (db/db mice; 30 and 50 mg/kg oral, daily for 36 days)?
**A.** no observations of clinical signs or morbidity, and no mortality

**Q.** And the “glucose as measured by area under the curve (AUC), dose dependence” value (db/db mice; 30 and 50 mg/kg, OGTT day 21)?
**A.** dose dependent decreases
